Results reported in PMC12586182 (Frontiers in Oncology, 2025).

Legend:
Assay in all cases: Kinase panel profiling at 1 µmol/L (mobility shift assay, Carna)
Format in all cases: biochemical
Settings in all cases: 1 µmol/L of BTK inhibitor
EPHA1 = molecular target: T1, EPHA1 (Homo sapiens, UniProt P21709)
T1 construct: purchased Carna Biosciences
T1 sequence (P21709 26-976): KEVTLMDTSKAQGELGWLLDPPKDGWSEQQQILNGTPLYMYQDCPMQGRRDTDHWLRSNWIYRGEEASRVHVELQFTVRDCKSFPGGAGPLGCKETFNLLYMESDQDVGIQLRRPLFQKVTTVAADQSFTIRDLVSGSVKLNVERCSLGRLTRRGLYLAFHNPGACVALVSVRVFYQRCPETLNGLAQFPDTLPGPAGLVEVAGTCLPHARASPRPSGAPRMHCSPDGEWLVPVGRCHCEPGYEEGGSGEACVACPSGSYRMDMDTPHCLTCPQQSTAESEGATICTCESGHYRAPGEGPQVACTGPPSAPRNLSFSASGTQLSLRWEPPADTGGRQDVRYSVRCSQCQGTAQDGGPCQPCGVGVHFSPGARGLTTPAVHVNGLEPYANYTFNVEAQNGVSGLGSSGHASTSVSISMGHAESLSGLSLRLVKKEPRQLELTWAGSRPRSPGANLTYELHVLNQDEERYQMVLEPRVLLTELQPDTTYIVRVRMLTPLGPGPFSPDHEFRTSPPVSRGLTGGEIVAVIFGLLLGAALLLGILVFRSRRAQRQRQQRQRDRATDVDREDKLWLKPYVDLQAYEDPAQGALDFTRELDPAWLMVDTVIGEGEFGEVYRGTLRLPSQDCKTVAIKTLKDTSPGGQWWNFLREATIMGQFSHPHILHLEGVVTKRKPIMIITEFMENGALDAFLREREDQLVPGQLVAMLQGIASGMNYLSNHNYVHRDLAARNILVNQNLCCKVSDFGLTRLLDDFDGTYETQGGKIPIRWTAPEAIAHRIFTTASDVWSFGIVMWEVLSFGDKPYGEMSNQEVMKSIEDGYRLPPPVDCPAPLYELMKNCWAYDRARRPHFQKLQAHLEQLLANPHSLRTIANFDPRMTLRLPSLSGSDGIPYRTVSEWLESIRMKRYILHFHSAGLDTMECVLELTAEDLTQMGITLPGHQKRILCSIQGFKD

EPHB1 = molecular target: T2, EPHB1 (Homo sapiens, UniProt P54762)
T2 construct: purchased Carna Biosciences
T2 sequence (P54762 18-984): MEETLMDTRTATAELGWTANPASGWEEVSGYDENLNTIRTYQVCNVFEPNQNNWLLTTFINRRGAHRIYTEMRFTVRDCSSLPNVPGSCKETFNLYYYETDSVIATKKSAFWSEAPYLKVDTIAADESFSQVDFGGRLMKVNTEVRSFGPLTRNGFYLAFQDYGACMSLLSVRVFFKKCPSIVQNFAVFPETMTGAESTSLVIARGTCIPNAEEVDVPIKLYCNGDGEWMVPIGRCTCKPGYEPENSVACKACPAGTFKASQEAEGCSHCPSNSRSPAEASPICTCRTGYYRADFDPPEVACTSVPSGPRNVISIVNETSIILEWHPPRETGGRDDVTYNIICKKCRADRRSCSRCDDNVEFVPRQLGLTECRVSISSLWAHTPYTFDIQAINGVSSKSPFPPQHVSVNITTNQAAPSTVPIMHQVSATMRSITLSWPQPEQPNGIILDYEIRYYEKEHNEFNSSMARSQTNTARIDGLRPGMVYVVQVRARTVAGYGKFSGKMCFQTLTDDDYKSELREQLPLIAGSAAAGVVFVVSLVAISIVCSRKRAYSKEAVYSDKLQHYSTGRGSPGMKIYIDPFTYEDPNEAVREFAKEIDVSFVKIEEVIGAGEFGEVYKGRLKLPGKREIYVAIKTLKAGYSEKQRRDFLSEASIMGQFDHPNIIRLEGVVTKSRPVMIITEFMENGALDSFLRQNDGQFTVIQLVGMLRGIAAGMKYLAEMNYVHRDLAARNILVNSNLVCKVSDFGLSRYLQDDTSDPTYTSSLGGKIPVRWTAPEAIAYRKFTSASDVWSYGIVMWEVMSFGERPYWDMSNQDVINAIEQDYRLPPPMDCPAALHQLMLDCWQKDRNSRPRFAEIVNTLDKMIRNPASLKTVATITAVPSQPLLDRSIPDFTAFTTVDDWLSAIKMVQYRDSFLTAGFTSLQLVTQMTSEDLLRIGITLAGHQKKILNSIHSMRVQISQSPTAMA

FYN [isoform b] = molecular target: T3, FYN [isoform b] (Homo sapiens, UniProt P06241)
T3 construct: purchased Carna Biosciences
T3 sequence (P06241 1-534 isoform P06241-2): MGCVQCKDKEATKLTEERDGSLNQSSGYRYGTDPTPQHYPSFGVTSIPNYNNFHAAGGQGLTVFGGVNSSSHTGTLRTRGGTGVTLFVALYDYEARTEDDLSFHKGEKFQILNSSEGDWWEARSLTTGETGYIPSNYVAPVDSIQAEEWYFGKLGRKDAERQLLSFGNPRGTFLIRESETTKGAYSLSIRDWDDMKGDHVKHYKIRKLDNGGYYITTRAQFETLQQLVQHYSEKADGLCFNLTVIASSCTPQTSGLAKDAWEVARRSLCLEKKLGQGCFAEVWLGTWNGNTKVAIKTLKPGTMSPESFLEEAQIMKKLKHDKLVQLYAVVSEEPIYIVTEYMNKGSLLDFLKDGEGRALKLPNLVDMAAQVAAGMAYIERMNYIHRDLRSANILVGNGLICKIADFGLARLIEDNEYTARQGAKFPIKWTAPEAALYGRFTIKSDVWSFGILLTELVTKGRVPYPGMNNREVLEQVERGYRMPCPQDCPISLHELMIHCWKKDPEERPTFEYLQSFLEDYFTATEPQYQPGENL

MSSK1 = molecular target: T4, MSSK1 (Homo sapiens, UniProt Q9UPE1)
T4 construct: purchased Carna Biosciences
T4 sequence (Q9UPE1 whole entry): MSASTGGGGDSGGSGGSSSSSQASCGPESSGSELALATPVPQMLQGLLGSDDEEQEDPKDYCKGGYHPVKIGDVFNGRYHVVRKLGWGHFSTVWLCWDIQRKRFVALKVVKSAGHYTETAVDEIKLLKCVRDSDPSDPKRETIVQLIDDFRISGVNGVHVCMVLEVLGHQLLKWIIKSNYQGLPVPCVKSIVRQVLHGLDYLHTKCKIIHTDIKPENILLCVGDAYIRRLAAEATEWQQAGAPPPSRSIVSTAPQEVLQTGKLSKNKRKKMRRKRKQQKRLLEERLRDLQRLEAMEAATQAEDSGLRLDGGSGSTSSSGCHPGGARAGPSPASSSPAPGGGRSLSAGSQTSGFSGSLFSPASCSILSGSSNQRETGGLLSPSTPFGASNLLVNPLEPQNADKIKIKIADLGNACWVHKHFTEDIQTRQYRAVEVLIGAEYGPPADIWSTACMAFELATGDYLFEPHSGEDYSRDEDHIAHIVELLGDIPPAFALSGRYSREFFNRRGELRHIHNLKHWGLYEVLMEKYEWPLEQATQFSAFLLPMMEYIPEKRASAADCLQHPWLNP

MST4 = molecular target: T5, MST4 (Homo sapiens, UniProt Q9P289)
T5 construct: purchased Carna Biosciences
T5 sequence (Q9P289 whole entry): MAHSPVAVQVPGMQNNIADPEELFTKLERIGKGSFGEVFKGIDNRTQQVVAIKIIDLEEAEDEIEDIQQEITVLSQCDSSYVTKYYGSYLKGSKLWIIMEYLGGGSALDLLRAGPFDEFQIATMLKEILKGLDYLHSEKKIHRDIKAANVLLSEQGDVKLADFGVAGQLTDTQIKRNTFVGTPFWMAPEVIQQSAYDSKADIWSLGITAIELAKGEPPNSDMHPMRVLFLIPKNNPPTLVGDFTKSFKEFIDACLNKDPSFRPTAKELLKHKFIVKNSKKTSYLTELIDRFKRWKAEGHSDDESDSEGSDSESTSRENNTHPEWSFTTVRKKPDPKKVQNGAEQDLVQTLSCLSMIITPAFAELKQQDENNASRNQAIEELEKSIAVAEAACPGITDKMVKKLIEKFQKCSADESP

PIM2 = molecular target: T6, PIM2 (Homo sapiens, UniProt Q9P1W9)
T6 construct: purchased Carna Biosciences
T6 sequence (Q9P1W9 whole entry): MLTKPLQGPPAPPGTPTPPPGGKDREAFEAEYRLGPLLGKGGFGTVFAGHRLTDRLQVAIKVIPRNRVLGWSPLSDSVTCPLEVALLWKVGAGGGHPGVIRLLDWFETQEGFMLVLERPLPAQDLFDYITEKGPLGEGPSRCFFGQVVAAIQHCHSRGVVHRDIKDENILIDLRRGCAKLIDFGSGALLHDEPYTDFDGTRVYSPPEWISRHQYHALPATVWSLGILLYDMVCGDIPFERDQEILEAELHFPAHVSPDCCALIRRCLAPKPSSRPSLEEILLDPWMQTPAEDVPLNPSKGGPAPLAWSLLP

QIK = molecular target: T7, QIK (Homo sapiens, UniProt Q9H0K1)
T7 construct: purchased Carna Biosciences
T7 sequence (Q9H0K1 whole entry): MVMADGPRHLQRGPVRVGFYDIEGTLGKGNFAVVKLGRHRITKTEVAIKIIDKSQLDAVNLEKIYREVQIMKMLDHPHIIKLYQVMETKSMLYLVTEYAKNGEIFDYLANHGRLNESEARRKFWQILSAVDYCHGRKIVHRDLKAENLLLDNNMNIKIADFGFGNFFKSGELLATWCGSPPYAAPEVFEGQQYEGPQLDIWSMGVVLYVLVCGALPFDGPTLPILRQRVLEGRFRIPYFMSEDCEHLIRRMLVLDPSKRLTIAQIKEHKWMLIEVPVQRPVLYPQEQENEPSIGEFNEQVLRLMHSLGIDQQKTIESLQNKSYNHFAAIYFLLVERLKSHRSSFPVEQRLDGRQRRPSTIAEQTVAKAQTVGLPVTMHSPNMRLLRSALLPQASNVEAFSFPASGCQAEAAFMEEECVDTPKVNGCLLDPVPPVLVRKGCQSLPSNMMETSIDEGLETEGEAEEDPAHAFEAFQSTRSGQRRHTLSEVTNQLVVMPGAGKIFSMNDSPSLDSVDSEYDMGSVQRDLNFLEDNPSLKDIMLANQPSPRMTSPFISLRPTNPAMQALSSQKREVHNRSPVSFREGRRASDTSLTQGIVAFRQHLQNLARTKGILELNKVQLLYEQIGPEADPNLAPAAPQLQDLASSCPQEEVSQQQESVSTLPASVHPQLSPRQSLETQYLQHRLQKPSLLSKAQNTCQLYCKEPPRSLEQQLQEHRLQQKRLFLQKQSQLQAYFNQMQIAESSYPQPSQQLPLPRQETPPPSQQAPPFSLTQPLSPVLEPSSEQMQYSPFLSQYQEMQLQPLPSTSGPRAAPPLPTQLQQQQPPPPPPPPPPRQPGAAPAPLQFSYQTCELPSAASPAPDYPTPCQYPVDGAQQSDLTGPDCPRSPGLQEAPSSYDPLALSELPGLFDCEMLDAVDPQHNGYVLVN

ROCK2 = molecular target: T8, ROCK2 (Homo sapiens, UniProt O75116)
T8 construct: purchased Carna Biosciences
T8 sequence (O75116 whole entry): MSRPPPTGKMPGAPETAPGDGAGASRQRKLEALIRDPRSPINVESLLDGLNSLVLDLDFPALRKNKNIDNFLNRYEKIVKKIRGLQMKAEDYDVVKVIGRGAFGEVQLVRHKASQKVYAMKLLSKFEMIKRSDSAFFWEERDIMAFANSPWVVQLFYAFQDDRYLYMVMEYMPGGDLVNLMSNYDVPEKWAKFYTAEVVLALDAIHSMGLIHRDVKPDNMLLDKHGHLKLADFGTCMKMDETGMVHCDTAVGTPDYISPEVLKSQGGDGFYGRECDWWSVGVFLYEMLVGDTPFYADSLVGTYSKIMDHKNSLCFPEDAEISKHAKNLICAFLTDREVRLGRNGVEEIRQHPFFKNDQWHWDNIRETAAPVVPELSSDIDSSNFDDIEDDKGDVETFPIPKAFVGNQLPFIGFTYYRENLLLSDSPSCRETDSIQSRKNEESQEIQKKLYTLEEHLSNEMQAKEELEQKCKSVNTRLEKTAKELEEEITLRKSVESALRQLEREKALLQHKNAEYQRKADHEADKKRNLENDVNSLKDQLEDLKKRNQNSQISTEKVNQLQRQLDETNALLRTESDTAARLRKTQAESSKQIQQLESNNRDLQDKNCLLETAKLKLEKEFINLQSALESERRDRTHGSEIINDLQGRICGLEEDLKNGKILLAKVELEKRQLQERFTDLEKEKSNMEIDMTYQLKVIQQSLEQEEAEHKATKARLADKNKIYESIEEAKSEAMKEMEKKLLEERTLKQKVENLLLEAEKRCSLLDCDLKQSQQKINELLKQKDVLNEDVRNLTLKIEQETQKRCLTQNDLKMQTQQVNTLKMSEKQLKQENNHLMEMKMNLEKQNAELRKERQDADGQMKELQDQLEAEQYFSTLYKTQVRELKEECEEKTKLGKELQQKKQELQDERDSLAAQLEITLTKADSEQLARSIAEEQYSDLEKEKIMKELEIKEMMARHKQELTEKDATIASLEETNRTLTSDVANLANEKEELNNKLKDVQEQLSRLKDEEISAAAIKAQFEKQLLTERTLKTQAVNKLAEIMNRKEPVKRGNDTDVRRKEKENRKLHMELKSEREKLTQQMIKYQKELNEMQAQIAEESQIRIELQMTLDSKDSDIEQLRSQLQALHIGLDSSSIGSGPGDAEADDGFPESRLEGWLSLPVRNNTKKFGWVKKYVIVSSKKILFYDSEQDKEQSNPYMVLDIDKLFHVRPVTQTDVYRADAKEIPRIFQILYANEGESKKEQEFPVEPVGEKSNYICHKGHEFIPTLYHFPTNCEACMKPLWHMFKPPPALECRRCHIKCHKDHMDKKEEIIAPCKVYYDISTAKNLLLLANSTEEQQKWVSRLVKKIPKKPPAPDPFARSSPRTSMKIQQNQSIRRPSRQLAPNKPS

RSK4 = molecular target: T9, RSK4 (Homo sapiens, UniProt Q9UK32)
T9 construct: purchased Carna Biosciences
T9 sequence (Q9UK32 whole entry): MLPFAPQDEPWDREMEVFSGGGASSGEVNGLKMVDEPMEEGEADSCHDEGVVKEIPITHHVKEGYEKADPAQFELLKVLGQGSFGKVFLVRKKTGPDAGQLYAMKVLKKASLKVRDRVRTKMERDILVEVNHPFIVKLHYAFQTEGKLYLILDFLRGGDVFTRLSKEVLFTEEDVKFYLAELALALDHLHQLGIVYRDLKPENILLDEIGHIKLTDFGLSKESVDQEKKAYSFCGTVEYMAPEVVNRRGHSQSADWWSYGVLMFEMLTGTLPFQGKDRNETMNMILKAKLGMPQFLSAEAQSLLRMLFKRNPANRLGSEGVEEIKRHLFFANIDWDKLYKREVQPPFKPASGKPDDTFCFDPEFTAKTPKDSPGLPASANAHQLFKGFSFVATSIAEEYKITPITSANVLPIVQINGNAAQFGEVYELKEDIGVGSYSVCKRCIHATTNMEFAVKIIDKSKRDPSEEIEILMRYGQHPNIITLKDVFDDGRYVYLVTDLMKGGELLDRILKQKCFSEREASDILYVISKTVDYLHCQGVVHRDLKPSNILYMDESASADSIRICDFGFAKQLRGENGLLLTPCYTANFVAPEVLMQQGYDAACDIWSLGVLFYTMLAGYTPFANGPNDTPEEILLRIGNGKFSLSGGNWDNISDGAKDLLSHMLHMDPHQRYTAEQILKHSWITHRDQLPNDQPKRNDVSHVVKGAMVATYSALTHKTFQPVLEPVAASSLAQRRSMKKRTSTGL

SGK2 = molecular target: T10, SGK2 (Homo sapiens, UniProt Q9HBY8)
T10 construct: purchased Carna Biosciences
T10 sequence (Q9HBY8 1-367): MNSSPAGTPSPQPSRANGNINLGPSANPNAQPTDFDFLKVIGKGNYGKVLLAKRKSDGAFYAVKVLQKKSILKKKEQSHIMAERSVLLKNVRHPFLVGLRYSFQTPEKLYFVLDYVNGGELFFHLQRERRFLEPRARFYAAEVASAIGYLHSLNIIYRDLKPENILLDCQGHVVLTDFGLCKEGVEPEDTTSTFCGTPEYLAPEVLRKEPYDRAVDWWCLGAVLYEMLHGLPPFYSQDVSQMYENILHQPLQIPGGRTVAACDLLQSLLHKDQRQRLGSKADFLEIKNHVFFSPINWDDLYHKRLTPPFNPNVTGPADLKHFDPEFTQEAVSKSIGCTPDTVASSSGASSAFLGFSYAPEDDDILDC

| SMILES | Percentage inhibition of kinase enzyme activity (EPHA1) [%] | Percentage inhibition of kinase enzyme activity (EPHB1) [%] | Percentage inhibition of kinase enzyme activity (FYN [isoform b]) [%] | Percentage inhibition of kinase enzyme activity (MSSK1) [%] | Percentage inhibition of kinase enzyme activity (MST4) [%] | Percentage inhibition of kinase enzyme activity (PIM2) [%] | Percentage inhibition of kinase enzyme activity (QIK) [%] | Percentage inhibition of kinase enzyme activity (ROCK2) [%] | Percentage inhibition of kinase enzyme activity (RSK4) [%] | Percentage inhibition of kinase enzyme activity (SGK2) [%] |
| --- | --- | --- | --- | --- | --- | --- | --- | --- | --- | --- |
| CC#CC(=O)N1CCC[C@H]1c1nc(-c2ccc(C(=O)Nc3ccccn3)cc2)c2c(N)nccn12 [acalabrutinib] | -0.59 | -1.40 | -1.25 | -4.86 | -6.42 | -16.50 | -0.22 | -2.29 | 4.21 | -19.42 |
| C=CC(=O)N1CCC([C@@H]2CCNc3c(C(N)=O)c(-c4ccc(Oc5ccccc5)cc4)nn32)CC1 [zanubrutinib] | -1.86 | -1.07 | – | – | – | – | – | – | – | – |
| O=C(c1ccc(Oc2ccccc2)cc1Cl)c1c[nH]c2ncnc(N[C@@H]3CC[C@@H](CO)OC3)c12 [nemtabrutinib] | 58.54 | 63.64 | – | -0.95 | 57.51 | -5.51 | 81.76 | 15.55 | -2.32 | 2.52 |
| COc1ccc(F)cc1C(=O)NCc1ccc(-c2nn([C@@H](C)C(F)(F)F)c(N)c2C(N)=O)cc1 [pirtobrutinib] | -1.27 | 2.51 | 15.19 | -8.63 | -7.97 | -1.91 | 8.30 | 1.18 | -0.12 | -0.16 |
| C=CC(=O)N1CCC[C@@H](n2nc(-c3ccc(Oc4ccccc4)cc3)c3c(N)ncnc32)C1 [ibrutinib] | 49.82 | 11.81 | 86.77 | 1.54 | 1.46 | -5.09 | 4.70 | 3.74 | 5.52 | – |
